Drawing on ChEMBL document CHEMBL1201862, “PubChem BioAssay data set” (2004), this text covers AC50, IC50 and EC50 for two compounds.

As a reminder, the AC50 is the concentration at which the activity in the assay is half-maximal. The term IC50 denotes the point on the concentration scale where inhibition reaches its midpoint. What is called EC50 is the concentration needed to bring the measured effect to its halfway point.

Each structure is given as a SMILES string. Active and inactive are the calls of the source.

Assay [1] addresses T1, Caspase-3 (Homo sapiens, UniProt P42574).
T1 sequence (P42574 whole entry): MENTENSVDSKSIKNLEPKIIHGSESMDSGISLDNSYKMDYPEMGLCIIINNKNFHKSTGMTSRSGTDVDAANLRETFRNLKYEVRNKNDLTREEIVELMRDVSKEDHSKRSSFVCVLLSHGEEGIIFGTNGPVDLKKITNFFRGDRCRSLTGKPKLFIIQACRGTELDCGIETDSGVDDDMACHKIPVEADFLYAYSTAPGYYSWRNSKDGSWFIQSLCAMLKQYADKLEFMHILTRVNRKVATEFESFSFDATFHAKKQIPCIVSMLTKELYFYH
Description: caspase-3 enzyme inhibitors, selectivity check, dose response, selectivity assay for caspase-6 allosteric inhibitor project, biochemical, fluorescence, cherry-picked samples (AID 743291).

For another assay, the target named is T2, Caspase-6 (Homo sapiens, UniProt P55212).
T2 sequence (P55212 whole entry): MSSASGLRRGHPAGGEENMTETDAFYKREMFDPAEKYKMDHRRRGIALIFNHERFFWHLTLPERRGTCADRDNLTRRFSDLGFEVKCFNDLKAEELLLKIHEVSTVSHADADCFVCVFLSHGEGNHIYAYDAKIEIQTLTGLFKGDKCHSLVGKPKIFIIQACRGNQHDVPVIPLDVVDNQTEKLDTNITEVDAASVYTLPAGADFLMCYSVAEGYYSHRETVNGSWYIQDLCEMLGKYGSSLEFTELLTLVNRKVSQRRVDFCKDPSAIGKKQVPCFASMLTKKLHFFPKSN
Description: human caspase-6 inhibitors, dose response, biochemical, VEID-R110 fluorescence, cherry-pick (AID 720632).

In assay [2] the target is Tyrosyl-DNA phosphodiesterase 2 (Homo sapiens, UniProt O95551). Description: human TDP2 enzyme inhibitors, dose response, biochemical, epi absorbance, IC50 (AID 743297).
Sequence of Tyrosyl-DNA phosphodiesterase 2 (O95551 whole entry): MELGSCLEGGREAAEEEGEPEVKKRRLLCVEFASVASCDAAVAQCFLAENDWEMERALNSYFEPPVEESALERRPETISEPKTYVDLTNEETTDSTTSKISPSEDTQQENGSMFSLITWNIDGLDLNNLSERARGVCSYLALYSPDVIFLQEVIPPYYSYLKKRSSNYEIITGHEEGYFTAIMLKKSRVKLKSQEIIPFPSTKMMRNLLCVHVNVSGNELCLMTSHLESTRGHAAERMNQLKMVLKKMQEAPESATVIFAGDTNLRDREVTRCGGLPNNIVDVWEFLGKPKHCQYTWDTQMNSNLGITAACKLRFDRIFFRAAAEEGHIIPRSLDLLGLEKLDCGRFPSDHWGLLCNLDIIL
The next assay addresses Caspase-9 (Homo sapiens, UniProt P55211). Description: caspase-9 enzyme inhibition, dose response, selectivity assay for caspase-6 inhibitor project, biochemical, fluorescence, plate reader, cherry-picked samples (AID 743293).
Another assay concerns H9c2. Description: cells. The assay is classed as functional, cell-based. Particulars: Rattus norvegicus, H9c2, Myocardium.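 Also: confirmatory concentration-response retest of ultra-high-throughput screening hits for modulation of myocardial damage; cell death induced by hydrogen peroxide oxidative stress; compound pretreatment for 60 min then peroxide exposure for 2 h; potency is for protecting the cells against peroxide damage rather than for killing them.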
The target in assay [3] is T1, Caspase-3. Type of assay: functional.
In assay [4] the target is T3, Sentrin-specific protease 6 (Homo sapiens, UniProt Q9GZR1).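 Also: Luminescence-based dose-response confirmatory assay of SENP6 inhibition, following up an ultra-high-throughput screen.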
T3 sequence (Q9GZR1 whole entry): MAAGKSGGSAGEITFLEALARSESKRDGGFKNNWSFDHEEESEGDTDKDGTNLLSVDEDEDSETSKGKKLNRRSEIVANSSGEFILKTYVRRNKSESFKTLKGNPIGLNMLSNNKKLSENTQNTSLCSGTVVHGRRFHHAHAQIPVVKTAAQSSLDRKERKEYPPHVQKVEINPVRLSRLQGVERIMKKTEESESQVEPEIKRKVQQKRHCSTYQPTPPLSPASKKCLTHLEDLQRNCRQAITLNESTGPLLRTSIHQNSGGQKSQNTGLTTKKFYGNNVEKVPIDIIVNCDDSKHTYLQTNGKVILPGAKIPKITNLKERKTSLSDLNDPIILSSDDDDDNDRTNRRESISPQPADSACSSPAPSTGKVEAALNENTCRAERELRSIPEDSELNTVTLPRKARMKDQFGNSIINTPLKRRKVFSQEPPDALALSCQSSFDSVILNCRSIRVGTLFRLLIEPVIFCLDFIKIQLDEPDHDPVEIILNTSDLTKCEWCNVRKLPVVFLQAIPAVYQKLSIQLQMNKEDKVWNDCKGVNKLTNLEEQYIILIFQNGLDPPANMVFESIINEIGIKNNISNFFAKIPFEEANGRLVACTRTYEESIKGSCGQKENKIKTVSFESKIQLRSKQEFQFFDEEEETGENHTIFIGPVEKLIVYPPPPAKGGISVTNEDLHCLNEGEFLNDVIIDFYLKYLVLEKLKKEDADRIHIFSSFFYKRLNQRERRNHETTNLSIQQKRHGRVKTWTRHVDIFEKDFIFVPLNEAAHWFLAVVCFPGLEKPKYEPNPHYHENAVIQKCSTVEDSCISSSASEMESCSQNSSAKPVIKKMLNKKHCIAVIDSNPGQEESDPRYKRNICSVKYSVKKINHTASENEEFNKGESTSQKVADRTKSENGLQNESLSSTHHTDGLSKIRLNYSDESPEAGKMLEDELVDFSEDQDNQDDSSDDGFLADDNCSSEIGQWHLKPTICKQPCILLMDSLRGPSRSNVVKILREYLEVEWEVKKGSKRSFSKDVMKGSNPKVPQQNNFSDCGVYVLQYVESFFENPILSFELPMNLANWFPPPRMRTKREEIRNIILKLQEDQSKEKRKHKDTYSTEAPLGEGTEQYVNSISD
The assay is classed as functional.

Assay [5] addresses T4, Sentrin-specific protease 8 (Homo sapiens, UniProt Q96LD8).
T4 sequence (Q96LD8 whole entry): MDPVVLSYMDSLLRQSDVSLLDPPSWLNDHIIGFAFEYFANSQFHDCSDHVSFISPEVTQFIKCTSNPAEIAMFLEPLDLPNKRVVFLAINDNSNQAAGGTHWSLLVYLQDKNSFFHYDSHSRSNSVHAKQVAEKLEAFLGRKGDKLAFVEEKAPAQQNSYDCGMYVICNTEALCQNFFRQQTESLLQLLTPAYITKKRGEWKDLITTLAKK
The assay is classed as functional.

Assay [6] deals with Mitochondrial peptide methionine sulfoxide reductase (Bos taurus, UniProt P54149). Description: Absorbance-based biochemical high throughput dose response assay for activators of Methionine sulfoxide reductase A (MsrA). The assay is classed as functional.
Sequence of Mitochondrial peptide methionine sulfoxide reductase (P54149 whole entry): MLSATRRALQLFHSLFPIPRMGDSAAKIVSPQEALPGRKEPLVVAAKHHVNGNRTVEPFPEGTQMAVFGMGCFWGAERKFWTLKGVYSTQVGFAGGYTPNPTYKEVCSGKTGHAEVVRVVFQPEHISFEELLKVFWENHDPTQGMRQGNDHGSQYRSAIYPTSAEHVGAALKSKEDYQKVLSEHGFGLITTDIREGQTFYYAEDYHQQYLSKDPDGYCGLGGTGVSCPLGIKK
A further assay deals with Caspase-8 (Homo sapiens, UniProt Q14790). Description: caspase-8 inhibition counter-screen, dose response, selectivity assay for caspase-6 inhibitor project, biochemical, Z-IETD-R110 fluorescence, cherry-picked samples (AID 743294). On the technique in general: A counterscreen serves to expose hits that act by an unwanted route or on another target.
Sequence of Caspase-8 (Q14790 217-374 limits assumed): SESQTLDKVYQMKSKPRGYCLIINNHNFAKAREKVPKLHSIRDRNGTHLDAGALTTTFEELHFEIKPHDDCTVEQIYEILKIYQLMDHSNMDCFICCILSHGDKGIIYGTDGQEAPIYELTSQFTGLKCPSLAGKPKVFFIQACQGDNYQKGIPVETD
Sequence of Caspase-8 (Q14790 385-479 limits assumed): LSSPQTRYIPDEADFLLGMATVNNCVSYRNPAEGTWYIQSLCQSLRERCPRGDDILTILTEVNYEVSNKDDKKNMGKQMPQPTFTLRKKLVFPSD
Assay [7] deals with T5, Sentrin-specific protease 7 (Homo sapiens, UniProt Q9BQF6).
T5 sequence (Q9BQF6 whole entry): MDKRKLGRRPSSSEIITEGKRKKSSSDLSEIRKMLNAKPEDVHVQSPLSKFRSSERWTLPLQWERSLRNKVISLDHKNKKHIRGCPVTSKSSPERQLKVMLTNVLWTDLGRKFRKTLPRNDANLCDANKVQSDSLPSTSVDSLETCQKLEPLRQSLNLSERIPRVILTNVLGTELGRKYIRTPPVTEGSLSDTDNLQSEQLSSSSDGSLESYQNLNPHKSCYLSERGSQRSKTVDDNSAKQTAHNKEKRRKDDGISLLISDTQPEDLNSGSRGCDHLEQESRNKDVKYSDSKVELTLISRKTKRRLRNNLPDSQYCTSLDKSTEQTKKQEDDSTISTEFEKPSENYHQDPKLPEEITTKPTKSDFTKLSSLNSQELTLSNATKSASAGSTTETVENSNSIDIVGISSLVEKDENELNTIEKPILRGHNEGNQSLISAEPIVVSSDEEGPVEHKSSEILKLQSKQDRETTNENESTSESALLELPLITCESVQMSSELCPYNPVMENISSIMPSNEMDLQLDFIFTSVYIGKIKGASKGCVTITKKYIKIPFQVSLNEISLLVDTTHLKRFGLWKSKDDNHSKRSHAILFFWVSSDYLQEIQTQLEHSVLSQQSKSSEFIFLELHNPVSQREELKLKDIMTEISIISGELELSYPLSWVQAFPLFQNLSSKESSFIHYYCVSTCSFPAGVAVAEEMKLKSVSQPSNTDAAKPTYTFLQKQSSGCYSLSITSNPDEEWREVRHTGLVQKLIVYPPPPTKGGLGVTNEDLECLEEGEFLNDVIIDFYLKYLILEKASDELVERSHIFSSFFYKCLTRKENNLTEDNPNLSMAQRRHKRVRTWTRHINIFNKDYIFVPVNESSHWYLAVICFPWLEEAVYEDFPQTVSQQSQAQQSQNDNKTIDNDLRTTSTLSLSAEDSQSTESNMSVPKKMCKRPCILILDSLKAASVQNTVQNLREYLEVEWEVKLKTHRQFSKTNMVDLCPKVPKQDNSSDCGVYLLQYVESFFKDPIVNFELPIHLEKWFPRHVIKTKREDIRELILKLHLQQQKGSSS
The assay is classed as functional.

A further assay deals with Caspase-7 (Homo sapiens, UniProt P55210). Description: human caspase-7 inhibitors, dose response, selectivity assay for caspase-6 inhibitor project, biochemical, DEVD-R110 fluorescence, cherry-pick (AID 743295). The assay is classed as […].
Sequence of Caspase-7 (P55210 24-198 limits assumed): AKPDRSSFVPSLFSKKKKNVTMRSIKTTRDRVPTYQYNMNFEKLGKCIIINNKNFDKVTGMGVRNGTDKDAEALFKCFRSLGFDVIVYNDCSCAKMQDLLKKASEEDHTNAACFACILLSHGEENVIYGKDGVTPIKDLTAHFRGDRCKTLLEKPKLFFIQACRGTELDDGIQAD
Sequence of Caspase-7 (P55210 207-303 limits assumed): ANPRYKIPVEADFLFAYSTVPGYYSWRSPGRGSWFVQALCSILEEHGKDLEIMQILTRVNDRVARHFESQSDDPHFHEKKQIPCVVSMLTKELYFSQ
The nature of assay [8]: PAX5 activity inhibitors, dose response, selectivity assay for PAX8 inhibitor project, cell-based, plate reader, dry powder samples (AID 743047).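 Also: HEK293 cells carrying a Pax5 driven CD19 promoter luciferase reporter; potency of inhibitors that lower reporter luminescence.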 The assay is classed as functional.
The nature of assay [9]: cytotoxicity in OV-90 ovarian cancer cells, dose response, PAX8 inhibitor project, cell-based, plate reader, dry powder, SA8 (AID 743149). Type of assay: functional.
Assay [10] is described as follows: cytotoxicity in COV434 cells, dose response, cytotoxicity control for PAX8 inhibitor project, cell-based, plate reader, dry powder, SA7 (AID 743145). Type of assay: functional.
The nature of assay [11]: cytotoxicity dependent on PAX8, dose response, cell-based, plate reader, dry powder (AID 743049). The assay is classed as functional.
Assay [12] can be described thus: PAX2 cell-based inhibition, dose response, selectivity assay for PAX8 inhibitor project, plate reader, dry powder samples (AID 743048).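 Also: HEK293 cells carrying a WT1 promoter luciferase reporter driven by expressed Pax2; potency is for inhibition of Pax2 driven reporter signal.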 Type of assay: functional.

Sequence of Caspase-9 (P55211 1-315 limits assumed): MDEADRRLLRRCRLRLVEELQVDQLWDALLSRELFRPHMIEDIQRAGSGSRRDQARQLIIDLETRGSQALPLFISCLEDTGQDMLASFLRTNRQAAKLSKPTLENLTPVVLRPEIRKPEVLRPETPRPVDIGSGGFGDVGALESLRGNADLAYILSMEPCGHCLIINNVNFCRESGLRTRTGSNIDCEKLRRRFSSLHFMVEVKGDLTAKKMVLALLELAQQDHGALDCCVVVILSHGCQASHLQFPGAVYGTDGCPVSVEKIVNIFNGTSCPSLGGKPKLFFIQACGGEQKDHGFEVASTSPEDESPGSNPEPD
Sequence of Caspase-9 (P55211 331-416 limits assumed): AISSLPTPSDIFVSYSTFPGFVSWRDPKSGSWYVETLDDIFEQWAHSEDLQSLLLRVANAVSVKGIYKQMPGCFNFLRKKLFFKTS

Take `O=C(OCc1nnc(-c2ccccc2)o1)c1ccc([N+](=O)[O-])s1`: the AC50 on Caspase-3 [1] is 6.9 µM (active); at Caspase-6, 3.66 µM (active); on Caspase-9, 18.4 µM (active); at Caspase-8, 23.3 µM (active); at Caspase-7 it was 14.6 µM (active). In addition, the IC50 was 24.2 µM (inactive) in assay [2]; > 79 µM (inactive) with H9c2; 14.3 µM (active) at Caspase-3 [3]; 6.79 µM (active) in assay [4]; 5.56 µM (active) in assay [5]; 10.1 µM (active) in assay [7]. The EC50 in [6] was 33.1 µM (inactive).

As to `COc1cccc(C#Cc2ccc([C@@H]3[C@@H](C#N)N(C(=O)C4CCCCC4)[C@@H]3CO)cc2)c1`, the AC50 is 30.5 µM (active) in assay [8]; 57.3 µM (active) in [9]; 69.6 µM (active) in assay [10]; 25.8 µM (active) in [11]; 19.9 µM (active) in assay [12].
